The results in this text go back to ChEMBL document CHEMBL1150881, “Glacins A and B: two novel bioactive mono-tetrahydrofuran acetogenins from Annona glabra” (J Nat Prod, 1998).

Each structure is given as a SMILES string. Values after ≈ are worked out from the molar mass of the structure shown.

The test system of one series is A498. Briefly: Cytotoxicity against human A498 cells after 7 days by MTT assay. In kind it is functional. The conditions noted are these: A498, 168 h, read-out: ED50 (the source's name).
The subject of a further series is PC-3. Briefly: Cytotoxicity against human PC3 cells after 7 days by MTT assay. In kind it is functional. Conditions: PC-3, 168 h, read-out: ED50 (the source's name).
A further series relates to MIA PaCa-2. Briefly: Cytotoxicity against human MIAPaCa2 cells after 7 days by MTT assay. In kind it is functional. The conditions noted are these: MIA PaCa-2, 168 h, read-out: ED50 (the source's name).
In another series the test system is A549. Briefly: Cytotoxicity against human A549 cells after 7 days by MTT assay. In kind it is functional. Conditions: A549, 168 h, read-out: ED50 (the source's name).
The next series deals with HT-29. Briefly: Cytotoxicity against human HT-29 cells after 7 days by MTT assay. In kind it is functional. Conditions: HT-29, 168 h, read-out: ED50 (the source's name).
A further series relates to MCF7. Briefly: Cytotoxicity against human MCF7 cells after 7 days by MTT assay. In kind it is functional. The conditions noted are these: MCF7, 168 h, read-out: ED50 (the source's name).
A short description of series [1]: Toxicity in Artemia salina. In kind it is organism-based. The conditions noted are these: in vivo.

In the case of `COc1cccc2c1C(=O)c1c(O)c3c(c(O)c1C2=O)C[C@@](O)(C(=O)CO)C[C@@H]3O[C@H]1C[C@H](N)[C@H](O)[C@H](C)O1` [DOXORUBICIN], the EC50 with A498 is 0.0062 µg/mL (≈ 0.0114 µM); with PC-3, 0.046 µg/mL (≈ 0.0846 µM); in the series on MIA PaCa-2, 0.0153 µg/mL (≈ 0.0281 µM); in the series on A549, 0.0191 µg/mL (≈ 0.0351 µM); in the series on HT-29 it was 0.0278 µg/mL (≈ 0.0511 µM); with MCF7, 0.179 µg/mL (≈ 0.329 µM).

Regarding `CCCCCCCCCC[C@@H](O)[C@H]1CC[C@H]([C@H](O)CCCC[C@H](O)CCCCCCC[C@@H](O)CC2=C[C@H](C)OC2=O)O1` [GLACIN A], the EC50 in the series on A498 was 1.25 µg/mL (≈ 2.09 µM); in the series on PC-3, 0.00981 µg/mL (≈ 0.0164 µM); with MIA PaCa-2, 0.00857 µg/mL (≈ 0.0144 µM); in the series with A549 it was 1.53 µg/mL (≈ 2.56 µM); in the series on HT-29 it was 2.3 µg/mL (≈ 3.85 µM); with MCF7, 0.00442 µg/mL (≈ 0.00741 µM). In addition, in series [1], the LC50 worked out at 0.11 µg/mL (≈ 0.184 µM).

Regarding `CCCCCCCCCC[C@H](O)[C@@H](O)CCCC[C@H]1CC[C@H]([C@H]2CC[C@H]([C@H](O)CCCCC[C@@H](O)CC3=C[C@H](C)OC3=O)O2)O1` [GLACIN B], the EC50 in the series with A498 worked out at 2.61 µg/mL (≈ 4.08 µM); in the series with PC-3, 0.0559 µg/mL (≈ 0.0875 µM); in the series on MIA PaCa-2 it was 0.0274 µg/mL (≈ 0.0429 µM); in the series with A549, 1.29 µg/mL (≈ 2.02 µM); in the series with HT-29, 0.0868 µg/mL (≈ 0.136 µM); in the series with MCF7 it was 0.052 µg/mL (≈ 0.0814 µM). In addition, the LC50 in series [1] amounted to 0.27 µg/mL (≈ 0.423 µM).
